Key:
[1] = system: Sec10-overexpressing MDCK cells
Protocol: (§1) Type II Madin-Darby canine kidney (MDCK) cells (Control cells) were obtained from Dr. K. Mostov (UCSF, San Francisco, Calif.). MDCK type II cells were overexpressing hSec10 (Sec10-overexpressing cells). See, e.g, Lipschutz et al, 2000 cited above. Cells were grown in modified Eagle's minimal essential medium (MEM) containing Earl's balanced salt solution and glutamine supplemented with 5% fetal calf serum, 100 U/ml penicillin, and 100 μg/m streptomycin on the plastic culture dishes. Some cells were grown on the 24-mm Transwell 0.45 μm polycarbonate filter units coated with collagen (Corning Life Sciences, Lowell, Mass.). Pore size on all filters was 0.4 μm. Cell monolayers were used for experiments after 7 d of culture with daily changes in medium. Cells were plated as single cells in a three-dimensional (3D) type I collagen gel. To culture collagen matrix, cells grown on plastic culture dishes were harvested using trypsin-EDTA, and suspended cells on the type I collagen gel and then seeded in chamber slide for 14 days and then treated with H2O2 (Sigma-Aldrich, Co.).
(§2) Control cells and Sec10-overexpressing cells were grown on the Transwell filter for 7 days after seeding. TER was measured using epithelial volt-ohmmeter (Model EVOM, World Precision Instruments). TER values were presented as the measured resistance in ohm multiplied by the surface area of the Transwell filter.
(§3) 1) control and Sec10-overexpressing cells were treated with U0126 alone for 30 min, U0126 plus H2O2 for 30 min, and then U0126 alone for 24 hrs (FIG. 5A), and
(§4) 2) control and Sec10-overexpressing cells were treated with H2O2 for 30 min, and U0126 alone for 24 hrs (FIG. 5B).

control MDCK cells = system: control MDCK cells
Protocol: as §1, §2, §3, §4

[2] = system: Sec10-overexpressing MDCK cells; details: U0126 30 min, then 1 mM H2O2 plus U0126 30 min
Protocol: (§5) Normal and hSec10-overexpressing (Sec10) MDCK cells were grown on collagen-matrix for 12-14 days as described herein and then treated with 1 mM of hydrogen peroxide for 30 min. Some cells were treated with 10 μM U0126 30 min before the treatment of hydrogen peroxide. After the treatment cells were fixed with 4% paraformaldehyde and then stained with F-actin phalloidin-conjugated cy3. Numbers of damaged cysts were counted using fluorescence microscope.
as §1, with “To culture collagen matrix, cells grown on plastic culture dishes were harvested using trypsin-EDTA, and suspended cells on the type I collagen gel and then seeded in chamber slide for 14 days and then treated with H2O2 (Sigma-Aldrich, Co.).” left out

normal MDCK cells = details: U0126 30 min, then 1 mM H2O2 plus U0126 30 min
Protocol: as §5
as §1, with “To culture collagen matrix, cells grown on plastic culture dishes were harvested using trypsin-EDTA, and suspended cells on the type I collagen gel and then seeded in chamber slide for 14 days and then treated with H2O2 (Sigma-Aldrich, Co.).” left out

[3] = system: phosphorylated (active) ERK; details: 10 μM U0126 for 30 min, then 1 mM H2O2 for 30 min; Transwell filter
Protocol: Normal and hSec10-overexpressing (Sec10) MDCK cells were grown on transwell filter culture dish at confluence, incubated in either vehicle or 10 μM of U0126 (an inhibitor of ERK activation) for 30 min, and then treated with 1 mM of H2O2 for 30 min. After 30 min of incubation in U0126 cells were harvested and used to detect the levels of phosphorylated ERK. Cells were lysed in SDS buffer.
Briefly, cells or kidneys were harvested in the RIPA (Sigma Co.) containing proteinase inhibitor cocktail (Sigma. Co) and phosphatase inhibitor cocktail (Sigma. Co) and centrifuged 14,000 rpm for 20 min at 4° C. Supernatants, then, were collected and protein concentration was determined using BCA protein assay kit. Protein samples were mix SDS-sample buffer and denatured by 5 min of boiling at 95° C. The protein samples were separated on 4-12% SDS-PAGE gels and then transferred to an Immobilon membrane (Millipore Corp., Bedford, Mass.). The membranes were blocked by 5% of non-fat dry milk in PBS containing of 0.1% Tween-20 (PBS-T), and incubated in anti-phospho-ERK (1:1000, Cell signaling), -total-ERK (1:5000, Cell signaling), and -Sec10 (1:500; Lipschutz lab.) antibodies overnight at 4° C. After washing with 3 times with 0.1% PBS-T, the membranes were incubated with horseradish peroxidase-conjugated secondary antibodies for 1 h at RT. […]

N#CC(=C(/N)Sc1ccccc1N)/C(C#N)=C(\N)Sc1ccccc1N [U0126]
TER relative to TER in H2O2 alone [1]: about 80% | TER versus U0126-nontreated cells ([1]; Sec10-overexpressing cells, 24 hrs after removal of H2O2): significantly lower | H2O2-induced decrease of TER ([1]; Sec10-overexpressing cells, U0126 pretreatment 30 min, 1 mM H2O2): accelerated H2O2-induced decrease of TER | TER relative to TER in H2O2 alone (control MDCK cells): about 83% | TER recovery versus non-U0126 treated cells (control MDCK cells; control cells, 24 hrs after removal of H2O2): not significantly different | H2O2-induced decrease of TER (control MDCK cells; control cells, U0126 pretreatment 30 min, 1 mM H2O2): accelerated H2O2-induced decrease of TER | Numbers of damaged cysts [2]: increased | Numbers of damaged cysts (normal MDCK cells): increased | ERK phosphorylation caused by H2O2 treatment [3]: blocked ERK phosphorylation

— patent US20150374851A1, “AAV VECTORS EXPRESSING SEC10 FOR TREATING KIDNEY DAMAGE” (The Trustees of the University of Pennsylvania, priority 2009, published 2015)
